{"source": "paper PMC7048932", "about": "“Examining sterically demanding lysine analogs for histone lysine methyltransferase catalysis” (Scientific Reports, 2020)", "key": {"SETD7 [1]": {"tested_on": "SETD7", "experiment": "MALDI-TOF MS methylation assay of H3K4 peptides with SETD7", "type": "biochemical, human", "conditions": "peptide 100 µM, SETD7 2 µM, SAM 200 µM, 1 h, 37 °C", "description": "(§1) MALDI-MS methyltransferases activity experiments were performed using a Bruker instrument in the reflectron positive mode. For regular methyltransferase standard conditions experiment which carried out in 30 µL total volume, the mixture contains peptide (100 µM), SAM (200 µM), SETD8 or SETD7 (2 µM), in assay buffer 50 mM Tris at optimal pH 8.0. In case of G9a and GLP, similar conditions were used, except (500 µM) of SAM was added to the reaction mixture. Samples were incubated in an Eppendorf vial 1.5 mL using thermomixer for 1 h at 37 °C. A 5 µL aliquot of the solution was mixed with 5 µL of MeOH, after which 5 µL of this mixture was mixed with 5 µL of α-cyano-4-hydroxycinamic acid matrix (CHCA, 5 mg/mL in 125:125 µL acetonitrile/water). The spots were placed on a stainless steel MALDI plate (MS 96 target ground steel BC of Bruker, Germany). The mass corresponding to one monomethylation observed as +14 Da, dimethylation observed as +28 Da and trimethylation observed as +42 Da. The enzymatic activity was determined by taking the peak areas of each methylation state, including all isotopes and adducts, and was annotated using FlexAnalysis software (Bruker Daltonics, Germany). […] Methylated peptide substrates were repeated five times and the unmethylated substrates were triplicated. Sequences of the examined peptides are given in (Supplementary Table 1)."}, "SETD7 [2]": {"tested_on": "SETD7", "experiment": "MALDI-TOF MS methylation assay of H3K4 peptides with SETD7", "type": "biochemical, human", "conditions": "peptide 100 µM, SETD7 10 µM, SAM 1 mM, 1 h and 3 h, 37 °C"}, "GLP [3]": {"biological_target": "T1, GLP (Homo sapiens, UniProt Q9H9B1)", "T1 construct": "His6 (N); made in house; host or cells: E. coli BL21 (DE3)pLysS-rosetta", "T1 sequence (Q9H9B1 1-1298)": "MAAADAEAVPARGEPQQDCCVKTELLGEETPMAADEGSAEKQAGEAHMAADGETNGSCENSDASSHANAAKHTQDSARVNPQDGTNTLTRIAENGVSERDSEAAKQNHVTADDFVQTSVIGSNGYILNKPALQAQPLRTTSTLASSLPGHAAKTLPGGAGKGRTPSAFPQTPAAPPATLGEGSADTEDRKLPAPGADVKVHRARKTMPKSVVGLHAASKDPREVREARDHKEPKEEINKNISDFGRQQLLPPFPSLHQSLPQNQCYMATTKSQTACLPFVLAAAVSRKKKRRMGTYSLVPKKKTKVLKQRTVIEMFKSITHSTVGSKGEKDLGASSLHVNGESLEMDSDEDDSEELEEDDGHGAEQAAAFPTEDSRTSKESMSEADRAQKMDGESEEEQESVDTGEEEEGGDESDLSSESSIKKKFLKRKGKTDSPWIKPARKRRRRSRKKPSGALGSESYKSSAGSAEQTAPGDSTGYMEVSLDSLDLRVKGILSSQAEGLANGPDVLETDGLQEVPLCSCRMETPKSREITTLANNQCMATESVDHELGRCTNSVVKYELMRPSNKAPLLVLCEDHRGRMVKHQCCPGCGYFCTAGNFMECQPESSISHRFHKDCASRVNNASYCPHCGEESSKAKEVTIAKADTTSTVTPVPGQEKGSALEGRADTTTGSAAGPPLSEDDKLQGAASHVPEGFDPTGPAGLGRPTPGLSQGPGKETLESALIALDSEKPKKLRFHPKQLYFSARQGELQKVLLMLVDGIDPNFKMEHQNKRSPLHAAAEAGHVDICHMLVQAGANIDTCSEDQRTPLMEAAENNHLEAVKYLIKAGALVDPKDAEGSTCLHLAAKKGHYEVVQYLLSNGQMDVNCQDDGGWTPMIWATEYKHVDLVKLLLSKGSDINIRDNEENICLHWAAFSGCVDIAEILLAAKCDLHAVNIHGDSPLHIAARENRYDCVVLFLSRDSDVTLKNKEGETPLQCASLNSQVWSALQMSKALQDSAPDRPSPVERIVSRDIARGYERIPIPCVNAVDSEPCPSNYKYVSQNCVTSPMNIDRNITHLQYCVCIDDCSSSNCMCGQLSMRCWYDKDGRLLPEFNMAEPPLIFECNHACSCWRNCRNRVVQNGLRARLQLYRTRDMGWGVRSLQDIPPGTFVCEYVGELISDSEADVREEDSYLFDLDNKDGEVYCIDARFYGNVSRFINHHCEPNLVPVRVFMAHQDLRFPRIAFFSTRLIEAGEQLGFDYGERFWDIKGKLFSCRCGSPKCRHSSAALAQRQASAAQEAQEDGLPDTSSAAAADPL", "experiment": "MALDI-TOF MS methylation assay of H3K9 peptides with GLP", "type": "biochemical", "conditions": "peptide 100 µM, GLP 10 µM, SAM 1 mM, 5 h, 37 °C, MALDI-MS", "description": "as §1, with “Samples were incubated in an Eppendorf vial 1.5 mL using thermomixer for 1 h at 37 °C.” left out"}, "G9a": {"biological_target": "T2, G9a (Homo sapiens, UniProt Q96KQ7)", "T2 construct": "His6 (N); made in house; host or cells: E. coli BL21 (DE3)pLysS-rosetta", "T2 sequence (Q96KQ7 1-1210)": "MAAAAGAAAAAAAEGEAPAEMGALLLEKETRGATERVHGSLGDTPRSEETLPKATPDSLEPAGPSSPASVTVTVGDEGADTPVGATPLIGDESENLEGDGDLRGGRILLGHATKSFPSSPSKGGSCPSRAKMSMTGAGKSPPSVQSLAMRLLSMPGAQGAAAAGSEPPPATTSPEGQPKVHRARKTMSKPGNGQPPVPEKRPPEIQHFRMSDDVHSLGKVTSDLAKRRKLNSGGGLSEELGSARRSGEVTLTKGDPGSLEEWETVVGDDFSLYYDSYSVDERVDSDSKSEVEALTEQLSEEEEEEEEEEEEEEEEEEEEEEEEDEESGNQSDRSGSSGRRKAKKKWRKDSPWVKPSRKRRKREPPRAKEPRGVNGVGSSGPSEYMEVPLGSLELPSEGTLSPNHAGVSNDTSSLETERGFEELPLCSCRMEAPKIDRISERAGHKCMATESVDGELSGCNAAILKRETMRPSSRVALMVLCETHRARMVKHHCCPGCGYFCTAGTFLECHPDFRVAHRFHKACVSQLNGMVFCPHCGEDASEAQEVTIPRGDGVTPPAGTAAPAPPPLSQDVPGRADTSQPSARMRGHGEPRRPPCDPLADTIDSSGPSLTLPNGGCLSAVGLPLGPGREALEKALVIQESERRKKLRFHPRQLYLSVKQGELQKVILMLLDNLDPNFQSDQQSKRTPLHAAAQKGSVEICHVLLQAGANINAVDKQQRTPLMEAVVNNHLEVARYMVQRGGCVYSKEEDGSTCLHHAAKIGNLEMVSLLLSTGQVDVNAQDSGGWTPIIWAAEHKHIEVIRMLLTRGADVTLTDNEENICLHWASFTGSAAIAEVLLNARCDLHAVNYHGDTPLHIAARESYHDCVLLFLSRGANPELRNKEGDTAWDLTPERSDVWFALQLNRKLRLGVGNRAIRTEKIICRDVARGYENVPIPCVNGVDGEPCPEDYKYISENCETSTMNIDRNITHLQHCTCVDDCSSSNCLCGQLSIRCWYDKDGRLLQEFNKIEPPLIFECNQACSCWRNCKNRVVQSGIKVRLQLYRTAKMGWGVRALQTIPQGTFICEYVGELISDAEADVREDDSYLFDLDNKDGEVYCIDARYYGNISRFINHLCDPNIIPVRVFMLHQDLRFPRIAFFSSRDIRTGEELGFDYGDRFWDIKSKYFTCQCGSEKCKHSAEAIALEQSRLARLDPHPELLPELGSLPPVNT", "experiment": "MALDI-TOF MS methylation assay of H3K9 peptides with G9a", "type": "biochemical", "conditions": "peptide 100 µM, G9a 2 µM, SAM 500 µM, 1 h, 37 °C", "description": "as §1"}, "GLP [4]": {"biological_target": "T1, GLP", "experiment": "NMR assay of GLP-catalyzed methylation of H3K9 peptides", "type": "biochemical", "conditions": "peptide 400 µM, GLP 8 µM, SAM 2 mM, 50 mM Tris-d11.HCl pD 8.0, 1 h, 37 °C"}, "SETD8 [5]": {"biological_target": "T3, SETD8 (Homo sapiens, UniProt Q9NQR1)", "T3 construct": "His6 (N); made in house; host or cells: E. coli BL21 (DE3)pLysS-rosetta", "T3 sequence (Q9NQR1 1-393)": "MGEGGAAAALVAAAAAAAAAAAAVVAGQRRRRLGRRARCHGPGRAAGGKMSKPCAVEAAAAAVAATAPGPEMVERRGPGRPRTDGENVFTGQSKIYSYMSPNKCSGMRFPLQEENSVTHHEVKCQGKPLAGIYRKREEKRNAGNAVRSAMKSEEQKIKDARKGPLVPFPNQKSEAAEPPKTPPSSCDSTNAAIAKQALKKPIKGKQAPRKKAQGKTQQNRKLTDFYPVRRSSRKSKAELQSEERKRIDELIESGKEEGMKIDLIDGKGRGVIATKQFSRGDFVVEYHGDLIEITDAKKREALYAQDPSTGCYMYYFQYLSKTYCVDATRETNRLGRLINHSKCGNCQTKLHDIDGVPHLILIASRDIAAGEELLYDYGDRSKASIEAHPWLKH", "experiment": "MALDI-TOF MS methylation assay of H4K20 peptides with SETD8", "type": "biochemical", "conditions": "peptide 100 µM, SETD8 2 µM, SAM 200 µM, 50 mM Tris pH 8.0, 1 h, 37 °C, MALDI-TOF MS", "description": "as §1, with “For regular methyltransferase standard conditions experiment which carried out in 30 µL total volume, the mixture contains peptide (100 µM), SAM (200 µM), SETD8 or SETD7 (2 µM), in assay buffer 50 mM Tris at optimal pH 8.0.” left out"}, "SETD8 [6]": {"biological_target": "T3, SETD8", "experiment": "Competition study between H4K20 and analog peptides with SETD8 (MALDI-MS)", "type": "biochemical", "conditions": "SETD8, equimolar H4K20 (100 µM) and H4KCP20 (100 µM), SAM 200 µM, 1 h, 37 °C", "source_text": "Next, we carried out competition studies between histone peptides that bear lysine and its analogs. In the presence of SETD8, SAM and equimolar amounts of H4K20 and H4KCP20, we observed the formation of both monomethylated products, albeit a comparatively larger degree of monomethylation of H4K20 was found (70% of H4K20me, 40% of H4KCP20me). […] It is also possible that subtle differences in sterics and electronics of H4KCP20 when compared to H4K20 do contribute to observed differences in the degree of methylation in the competition experiment.\nFigure S31. MALDI-MS based assay showing ( a) SETD8-catalyzed monomethylation of […]\n(b) SETD8-catalyzed methylation of H4K20 (100 µM) in the presence of H4F 3a20 (100 µM) and SAM (200 µM) after 1 h at 37 °C; ( c) SETD8-catalyzed methylation of H4K20 (100 µM) in the presence of H4F 4a20 (100 µM) and SAM (200 µM) after 1 h at 37 °C; ( d) SETD8-catalyzed methylation of H4K20 (100 µM) in the presence of H4A p20 (100 µM) and SAM (200 µM) after 1 h at 37 °C; ( e) SETD8-catalyzed methylation of H4K20 (100 µM) in the presence of […]\n(1 picture or pasted object on this page, not shown here)"}}}
{"substance": "ART(Kcp4)QTARKSTGGKA [H3KCP4, H3K4 peptide bearing cyclopropyllysine at position 4]", "values": [{"measurement": "SETD7-catalyzed methylation, result in words", "setting": "SETD7 [1]", "result": "only traces"}, {"measurement": "SETD7-catalyzed methylation, result in words", "setting": "SETD7 [1]; listed as H3K CP4", "result": "traces of monomethylation"}, {"measurement": "SETD7-catalyzed methylation, result in words, high SETD7/SAM", "setting": "SETD7 [2]", "result": "increased amount of the monomethylated H3KCP4me product"}, {"measurement": "SETD7-catalyzed methylation, result in words, high SETD7/SAM", "setting": "SETD7 [2]; listed as H3K CP4", "result": "monomethylation"}]}
{"substance": "ARTKQTAR(Y9)STGGKA (ARTKQTARYSTGGKA) [H3Y9]", "values": [{"measurement": "GLP-catalyzed methylation, result in words, increased GLP/SAM", "setting": "GLP [3]", "result": "lack of methylation"}, {"measurement": "G9a-catalyzed methylation, result in words", "setting": "G9a", "result": "lack of methylation"}, {"measurement": "GLP-catalyzed methylation by 1H NMR / 1H-13C HSQC, result in words", "setting": "GLP [4]", "result": "not methylated"}]}
{"substance": "GGAKRHRK^20VLRDNIQ [H4K20, reference compound]", "values": [{"measurement": "SETD8-catalyzed methylation, result in words", "setting": "SETD8 [5]", "result": "quantitative monomethylation"}, {"measurement": "monomethylated product formed in competition experiment", "setting": "SETD8 [6]", "result": 70, "unit": "%"}]}
